A short description of data set [1]: in vitro. The conditions noted are these: human, microsomes, pH 7.4. How it is done:
The assay was performed in duplicate.
Supernatant (200 μL) from each reaction tube was taken for LC-MS/MS analysis.

In data set [2] the test system is CACO-2 cell line. The conditions noted are these: standard compounds at 5 μM; apical to basolateral.
A short description of data set [3]: in vitro. The conditions noted are these: human, Caco-2.
The nature of data set [4]: Pharmacokinetic study in monkey, single oral dose. The format is in vivo. The conditions noted are these: 50 mg/kg single oral; Cynomolgus monkey; plasma. As to the method:
The objective of the study was to evaluate pharmacokinetic exposure of compound 121 after per oral dosing at 25 mg/kg dose and Fulvestrant after per oral dosing at 50 mg/kg dose in Cynomolgus monkey. The study was performed in overnight fasted Cynomolgus monkeys.
Blood samples were collected at each time points like 0 h (pre-dose) and 0.25, 0.5, 1, 2, 4, 8, 12, 24, 36 and 48 h post-dose via the cephalic or saphenous veins into polyethylene microcentrifuge tubes containing potassium (K2) EDTA. There were total 11 time points, n=1 monkey. All blood samples were mixed well by inversion and placed on wet ice until processed for plasma. Blood samples were centrifuged at 2˜8° C. for 10 min at 3000 g to collect plasma. Plasma samples of approximately […] at each time point were used for the bioanalysis. The plasma samples were stored frozen in a freezer set to maintain −60° C. to −70° C. until LC/MS/MS analysis.
Bioanalysis was performed using fit-for-purpose LC-MS/MS method for the quantification of compound 121 or Fulvestrant in plasma samples. The calibration curve was prepared in stabilized blank monkey plasma over 1-1000 ng/mL range for compound 121 and 1-3000 ng/mL range for Fulvestrant. Samples were cleaned up using the protein precipitation technique and analysed by LC-MS/MS.
The plasma pharmacokinetic parameters were calculated using standard non-compartmental analysis (using linear trapezoidal method with linear interpolation.)

For data set [5], the system named is MCF7 tumor. As to the kind of experiment: Anticancer efficacy of compound 121 in nude mice bearing MCF7 tumor. The format is in vivo. The conditions noted are these: 1 mg/mouse (~33.3 mg/kg) subcutaneously; MCF-7 xenograft mice. How it is done:
For this purpose, MCF7 cancer cells were procured from ATCC and grown in DMEM Medium supplemented with 10% FBS and 1% penicillin streptomycin. Cells were harvested when they reach 70-80% confluence for tumor implantation. 24 h prior to MCF7 cells implantation, the skin area around the injection site of nude mice were disinfected by mildly swabbing with surgical spirit. […] pellet (0.18 mg/pellet 60-day release, Innovative Research of America) was subcutaneously implanted into in the left flank region of the animals. For cell inoculation, cells were mixed with equal volume of Matrigel in a 1:1 ratio followed by injection of 5×10^6 MCF7 cells subcutaneously on the right flank region using a 1 mL syringe attached to a 24 G needle. On the subsequent days the injection site was monitored for tumor palpability. Tumor grafts were measured within 7-8 days of cell inoculation for tumor palpability. […]
After randomization, treatment was initiated when the average tumor volume reaches −200±50 mm^3. Tumor volume and mouse body weight were measured on the first day of treatment (Day 1) and then three times per week till 28 days as shown in FIG. 4. […]
Tumor volume (mm^3) was calculated using the formula, tumor length×(tumor width)2/2. Tumor growth inhibition will be calculated after normalizing the values to that on day 1. % TGI was calculated based on the formula below.

These results are taken from patent US20250268919A1, “COMPOUNDS FOR THE TREATMENT OF CANCER” (Amneal Pharmaceuticals LLC, priority 2021, published 2025).

The half-life is the time needed for the level to fall by half in the phase considered. High values mean slow loss, low ones fast loss. What is called efflux ratio is a quotient of directional permeabilities that is used to spot active efflux.

For the compound `CC(=O)N1CCN(c2ccc(OCC3COC(Cn4ccnc4)(c4ccc(Cl)cc4Cl)O3)cc2)CC1` (stereo not drawn) [Ketoconazole], the half-life in data set [1] was above 2 h.

`CC(C)NCC(O)COc1cccc2ccccc12` (stereo not drawn) [Propranolol]: the A-B permeability in data set [2] is 62.15 ×10⁻⁶ cm/s.

Take `C[C@H]1O[C@@H](O[C@H]2[C@@H](O)C[C@H](O[C@H]3[C@@H](O)C[C@H](O[C@H]4CC[C@@]5(C)[C@H](CC[C@@H]6[C@@H]5C[C@@H](O)[C@]5(C)[C@@H](C7=CC(=O)OC7)CC[C@]65O)C4)O[C@@H]3C)O[C@@H]2C)C[C@H](O)[C@@H]1O` [Digoxin]: the efflux ratio at 5 μM in data set [3] worked out at 19.7.

Consider `C[C@]12CC[C@@H]3c4ccc(O)cc4C[C@@H](CCCCCCCCC[S+]([O-])CCCC(F)(F)C(F)(F)F)[C@H]3[C@@H]1CC[C@@H]2O` (stereo partly drawn) [Fulvestrant], for which, in data set [4], the “AUC % Extrap” value was “Inestimable”, the AUC_0-t entry was “Inestimable”, the “AUC_0-∞” value was “Inestimable” and the Cmax result is reported as “Inestimable”. Besides, in data set [4], the Tmax entry is “Inestimable”. Further, the “% Tumor Growth Inhibition (% TGI) on day 28” value in data set [5] is on record as 101%.
